In brackets after ≈: the same amount, converted by molar mass.
Key:
S. pneumoniae mefE = assay: Antibacterial activity (MIC); format: cell-based; conditions: Streptococcus pneumoniae; S. pneumoniae mefE (macrolide-resistant by efflux)
[1] = system: S. pneumoniae PSSP CQI 201; assay: Antibacterial activity (MIC); format: cell-based, Streptococcus pneumoniae; conditions: for MIC: Streptococcus pneumoniae, S. pneumoniae PSSP CQI 201, read-out: MIC
[2] = system: Staphylococcus aureus MSSA CIP 4.83; assay: Antibacterial activity (MIC/MBC); format: cell-based; conditions: Staphylococcus aureus; S. aureus MSSA CIP 4.83; read-out: MIC
[3] = system: S. pneumoniae PRSP clinical isolate; assay: Antibacterial activity (MIC/MBC); format: cell-based, Streptococcus pneumoniae; conditions: Streptococcus pneumoniae, PRSP, read-out: MIC
[4] = system: S. aureus MRSA clinical isolate; assay: Antibacterial activity (MIC); format: cell-based, Staphylococcus aureus; conditions: Staphylococcus aureus; S. aureus MRSA clinical isolate; read-out: MIC
S. pyogenes CIP 56.41T = assay: Antibacterial activity (MIC/MBC); format: cell-based, Streptococcus pyogenes; conditions: Streptococcus pyogenes, CIP56; S. pyogenes CIP 56.41T; read-out: MIC
B. fragilis API 7716 = assay: Antibacterial activity (MIC); format: cell-based; conditions: Bacteroides fragilis, API7716

MIC (S. pneumoniae mefE) [µg/mL] | MIC [1] [µg/mL] | MIC [2] [µg/mL] | MIC [3] [µg/mL] | MIC [4] [µg/mL] | MIC (S. pyogenes CIP 56.41T) [µg/mL] | MIC (B. fragilis API 7716) [µg/mL] | SMILES | gain in activity (factor) ([1]; Streptococcus pneumoniae PSSP, versus macrolide residue)
5 (≈ 6.81 µM) | 0.039 (≈ 0.0531 µM) | 0.156 (≈ 0.213 µM) | > 5 | 0.156 (≈ 0.213 µM) | 0.039 (≈ 0.0531 µM) |  | CC[C@H]1OC(=O)[C@H](C)[C@@H](O[C@H]2C[C@@](C)(OC)[C@@H](O)[C@H](C)O2)[C@H](C)[C@@H](O[C@@H]2O[C@H](C)C[C@H](N(C)C)[C@H]2O)[C@](C)(O)C[C@@H](C)C(=O)[C@H](C)[C@@H](O)[C@]1(C)O [Erythromycin, reference compound] | 
 |  |  |  |  |  | 3.12 (≈ 8.54 µM) | Cc1ncc([N+](=O)[O-])n1CCNc1ccnc2cc(C(F)(F)F)ccc12 [PA 1130, [2-(2-Methyl-5-nitroimidazol-1-yl)-ethyl]-(7-trifluoromethylquinolinyl-4-yl)-amine] | 
1.25 (≈ 1.29 µM) | 0.005 (≈ 0.00517 µM) | 0.156 (≈ 0.161 µM) | > 5 | 0.31 (≈ 0.32 µM) | 0.078 (≈ 0.0806 µM) |  | CC[C@@H]1OC(=O)[C@H](C)[C@H](OC2CC(C)(OC)C(O)C(C)O2)[C@@H](C)[C@@H](OC2OC(C)CC(N(C)C)C2O)[C@](C)(O)C[C@@H](C)/C(=N\OCCCNc2ccnc3cc(Cl)ccc23)[C@@H](C)[C@H](O)[C@]1(C)O (some centres unmarked) [PA 1169, 10{O-[3-(7-Chloroquinolin-4-ylamino)-propyl]-oxime}-erythromycin] | 8

From US20070060558A1 (PALUMED S.A., priority 2004, published 2007)
